From the supplement of paper PMC10307832

Columns and labels:
Test in all cases: relative viability (nuclei count vs DMSO), 5 days (fraction); higher = more cells survive
ABC-1 = system: ABC-1
Outline: (§1)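 A single step with final 0.05% Triton X-100, 1% formaldehyde and 1 ug/ml Hoechst fixed the cells and stained nuclei 5 days after treatment. Lung cancer cell lines in 1536-well plates had been treated by pin tool the day after seeding with one drug alone or a fixed anchor-drug dose plus five library-drug doses (not always all listed) in √10 steps, and nuclei were counted on 4× images. Relative viability is the ratio of nuclei in treated wells to nuclei in vehicle wells, taken as the median of duplicate plates.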

CAL-12T = system: CAL-12T
Outline: as §1

COR-L23 = system: COR-L23
Outline: as §1

EKVX = system: EKVX
Outline: as §1

H3255 = system: H3255
Outline: as §1

HCC-15 = system: HCC-15
Outline: as §1

HCC-827 = system: HCC-827
Outline: as §1

LK-2 = system: LK-2
Outline: as §1

NCI-H1355 = system: NCI-H1355
Outline: as §1

NCI-H1437 = system: NCI-H1437
Outline: as §1

NCI-H1563 = system: NCI-H1563
Outline: as §1

NCI-H1650 = system: NCI-H1650
Outline: as §1

NCI-H1651 = system: NCI-H1651
Outline: as §1

NCI-H1734 = system: NCI-H1734
Outline: as §1

NCI-H2228 = system: NCI-H2228
Outline: as §1

NCI-H2405 = system: NCI-H2405
Outline: as §1

NCI-H322M = system: NCI-H322M
Outline: as §1

NCI-H520 = system: NCI-H520
Outline: as §1

NCI-H661 = system: NCI-H661
Outline: as §1

PC-14 = system: PC-14
Outline: as §1

PC-3 [JPC-3] = system: PC-3 [JPC-3]
Outline: as §1

RERF-LC-KJ = system: RERF-LC-KJ
Outline: as §1

SK-MES-1 = system: SK-MES-1
Outline: as §1

SW 1573 = system: SW 1573
Outline: as §1

For `CC(C)Oc1cc(Nc2nc(N[C@@H](C)c3ccc(F)cn3)ncc2Cl)n[nH]1` [AZ23] + N=C(N)NC(=N)NCCc1ccccc1 [Phenformin] (partner 250 µM), the relative viability (ABC-1; first compound 0.01 µM) was 0.211, the relative viability (ABC-1; first compound 0.03162 µM) was 0.221 and the relative viability (ABC-1; first compound 0.3162 µM) was 0.236. It also gave a relative viability (CAL-12T; first compound 0.03162 µM) of 0.591, a relative viability (CAL-12T; first compound 0.3162 µM) of 0.524 and a relative viability (COR-L23; first compound 0.01 µM) of 0.367. It also gave a relative viability (COR-L23; first compound 0.03162 µM) of 0.512, a relative viability (COR-L23; first compound 0.3162 µM) of 0.462 and a relative viability (EKVX; first compound 0.01 µM) of 0.224. The relative viability (EKVX; first compound 0.03162 µM) was 0.237, the relative viability (EKVX; first compound 0.3162 µM) was 0.231 and the relative viability (H3255; first compound 0.01 µM) was 0.323. It also gave a relative viability (H3255; first compound 0.03162 µM) of 0.364, a relative viability (H3255; first compound 0.3162 µM) of 0.327 and a relative viability (HCC-15; first compound 0.01 µM) of 0.555. It also gave a relative viability (HCC-15; first compound 0.03162 µM) of 0.537, a relative viability (HCC-15; first compound 0.3162 µM) of 0.494 and a relative viability (HCC-827; first compound 0.01 µM) of 0.436. It also gave a relative viability (HCC-827; first compound 0.03162 µM) of 0.42, a relative viability (HCC-827; first compound 0.3162 µM) of 0.404 and a relative viability (LK-2; first compound 0.01 µM) of 0.303. It also gave a relative viability (LK-2; first compound 0.03162 µM) of 0.401, a relative viability (LK-2; first compound 0.3162 µM) of 0.311 and a relative viability (NCI-H1355; first compound 0.01 µM) of 0.462. It also gave a relative viability (NCI-H1355; first compound 0.03162 µM) of 0.483, a relative viability (NCI-H1355; first compound 0.3162 µM) of 0.455 and a relative viability (NCI-H1437; first compound 0.01 µM) of 0.298. The relative viability (NCI-H1437; first compound 0.03162 µM) was 0.336, the relative viability (NCI-H1437; first compound 0.3162 µM) was 0.345 and the relative viability (NCI-H1563; first compound 0.01 µM) was 0.708. It also gave a relative viability (NCI-H1563; first compound 0.03162 µM) of 0.653, a relative viability (NCI-H1563; first compound 0.3162 µM) of 0.707 and a relative viability (NCI-H1650; first compound 0.03162 µM) of 0.537. The relative viability (NCI-H1650; first compound 0.3162 µM) was 0.405, the relative viability (NCI-H1651; first compound 0.03162 µM) was 0.332 and the relative viability (NCI-H1651; first compound 0.3162 µM) was 0.356. For the same compound, the relative viability (NCI-H1734; first compound 0.01 µM) was 0.335, the relative viability (NCI-H1734; first compound 0.03162 µM) was 0.451 and the relative viability (NCI-H1734; first compound 0.3162 µM) was 0.439. It also gave a relative viability (NCI-H2228; first compound 0.01 µM) of 0.401, a relative viability (NCI-H2228; first compound 0.03162 µM) of 0.302 and a relative viability (NCI-H2228; first compound 0.3162 µM) of 0.252. It also gave a relative viability (NCI-H2405; first compound 0.01 µM) of 0.33, a relative viability (NCI-H2405; first compound 0.03162 µM) of 0.429 and a relative viability (NCI-H2405; first compound 0.3162 µM) of 0.382. The relative viability (NCI-H322M; first compound 0.03162 µM) was 0.903, the relative viability (NCI-H322M; first compound 0.3162 µM) was 0.785 and the relative viability (NCI-H520; first compound 0.01 µM) was 0.508. It also gave a relative viability (NCI-H520; first compound 0.03162 µM) of 0.643, a relative viability (NCI-H520; first compound 0.3162 µM) of 0.23 and a relative viability (NCI-H661; first compound 0.01 µM) of 0.293. The relative viability (NCI-H661; first compound 0.03162 µM) was 0.257, the relative viability (NCI-H661; first compound 0.3162 µM) was 0.241 and the relative viability (PC-14; first compound 0.03162 µM) was 0.781. The relative viability (PC-14; first compound 0.3162 µM) was 0.703, the relative viability (PC-3 [JPC-3]; first compound 0.01 µM) was 0.502 and the relative viability (PC-3 [JPC-3]; first compound 0.03162 µM) was 0.453. For the same compound, the relative viability (PC-3 [JPC-3]; first compound 0.3162 µM) was 0.476, the relative viability (RERF-LC-KJ; first compound 0.01 µM) was 0.455 and the relative viability (RERF-LC-KJ; first compound 0.03162 µM) was 0.457. It also gave a relative viability (RERF-LC-KJ; first compound 0.3162 µM) of 0.463, a relative viability (SK-MES-1; first compound 0.03162 µM) of 0.743 and a relative viability (SK-MES-1; first compound 0.3162 µM) of 0.743. It also gave a relative viability (SW 1573; first compound 0.01 µM) of 0.347, a relative viability (SW 1573; first compound 0.03162 µM) of 0.512 and a relative viability (SW 1573; first compound 0.3162 µM) of 0.465.
